| melting point [°C] | SMILES |
| --- | --- |
| 64 | CCCCCCCc1ccc(OC(=O)c2cc3c(s2)CC(CCCCC)C3)cc1 (stereo not drawn) |
| > 370 | Nc1ncnc2[nH]c(=O)sc12 |
| 272 to 273 | O=C1CCC(c2ccc(NC(=O)C3CC3)cc2)=NN1 |
| 98.5 to 99.5 | CC1CN(c2ncc(Br)cc2C=O)CC1C (stereo not drawn) |
| 125 to 126 | Cc1ccc(S(=O)(=O)N(O)S(=O)(=O)c2ccc(C)cc2)cc1 |
| 130 to 133 | CCc1nc2c(cnn2CC)c(NC2CCOCC2)c1CNC(=O)c1cccc(C(=O)NCc2cc(Cl)cc(-c3cccc(CN4CC5CC4CN5)c3)c2)c1 (stereo not drawn) |
| 235 | O=S1(=O)c2cccc3cccc(c23)N1CCN1CCN(c2ccc(O)cc2)CC1 |
| 232 to 234 | CCn1cc(C(=O)O)c(=O)c2cc(F)c(N3CCNC(c4cccs4)C3)cc21 (stereo not drawn) |
| 171 to 180 | O=[N+]([O-])c1oc2ccc(CBr)cc2c1-c1ccccc1 |
| 191 to 194 | CNc1nc(OC)ccc1Nc1nc(Nc2cc3c(cc2OC)CCN(CC(=O)N(C)C)CC3)ncc1Cl |
| 140 to 142 | COC(=O)C(C)(N)Cc1c[nH]c2ccc(OC(F)F)cc12 (racemic) |
| 95 to 97 | O=[N+]([O-])c1ccc(CN2CCc3ccccc32)cc1 |
| 132 to 134 | O=C(CCCCC1(C(=O)O)CC1)CCCCC1(C(=O)O)CC1 |
| 196 to 200 | O=C(O)c1ccc(Sc2ccc(O)cc2)cc1 |
| 168 to 173 | COc1ccc(C2=NN(c3ccccc3)C(c3ccc([N+](=O)[O-])cc3)C2)cc1 (stereo not drawn) |
| 202 to 204 | Oc1ncc(-c2ccccc2)s1 |
| 129 | O=C(NCC1CCN(CC2(C(=O)O)CCOCC2)CC1)N1C(=O)C2(CCCC2)c2ccc(F)cc21 |
| 264 to 265 | N#Cc1ccc(-c2cc(-c3ccc(C#N)cc3[N+](=O)[O-])no2)cc1 |
| 195 to 196 | CS(=O)(=O)c1ccc(-c2c(-c3ccc(F)cc3)c(OCc3c(F)cccc3Cl)nn2Cc2c(F)cccc2Cl)cc1 |
| 125 to 127 | O=CC(CC(=O)c1ccccc1)(c1ccccc1)c1ccccc1 |
| 67 to 69 | COC(=O)N(Oc1cc(Cl)cc(Cl)c1)C(=O)N(C)C(C)C |
| 98 to 99 | COC(=O)C1(CCCN2CCN(c3ccccc3)CC2)Oc2ccccc2CCC1O (stereo not drawn) |
| 223 to 226 | CC(=O)NC(CSCc1ccc(-c2nc(-c3ccccc3)cc(-c3ccccc3)n2)cc1)C(=O)O (stereo not drawn) |

| melting point [°C] | SMILES |
| --- | --- |
| 148 to 150 | CCc1c(-c2ccc(OCc3ccccc3)cc2)c2cc(CO)c3cccc1n32 |
| 135 | C#CCSc1nc(=O)n(CC#C)cc1F |
| 115 to 117 | O=[N+]([O-])c1ccc(Sc2cccc3cnccc23)nc1 |
| 138 to 141 | CCNC1(c2ccccc2Cl)C(=O)N(Cc2ccc(C(=O)NC(C)(CO)CO)cc2)c2ccc(Cl)cc21 (stereo not drawn) |
| 145 | CC(C)(C)C(=O)NNc1ccc([N+](=O)[O-])cc1Br |
| 92 to 94 | COc1ccccc1N1CCN(CCNc2ccccc2C(C)=O)CC1 |
| 92 | CC(C)(C)OC(=O)NCC(O)CNC(=O)OC(C)(C)C |
| 55 to 58 | NCC(O)COc1cccc(Cl)c1 (stereo not drawn) |
| 165 to 166 | N#Cc1cncc(-c2cccc(OCc3ccccc3)c2)c1Nc1ccc2[nH]ccc2c1 |
| 109 to 112 | CCCCCCSC[C@H](N[C@@H](C)C(=O)N1CCC[C@H]1C(=O)O)C(=O)O |
| 175 to 176 | O=c1nc(-c2ccccc2)c2cc([N+](=O)[O-])ccc2n1Cc1ccccn1 |
| 121 to 123 | CCn1c(C2CCCO2)nc2c(N)nc(OCCc3ccccc3)nc21 (stereo not drawn) |
| 134 to 135 | COC(=O)[C@H]1[C@@H](NC(=O)OC(C)(C)C)C(=O)N1Cc1ccc(OC)cc1OC (relative stereo) |
| 231 to 233 | COCC1OC(n2cnc3c(N)nc(F)nc32)C(O)C1O (stereo not drawn) |
| 210 to 212 | CC(C)=NOCc1nc2c(N)nc(C)c(C)c2n1CCCCN(C(N)=O)C1CCCCC1 |
| 95.5 to 97.5 | CCC(C)N1CC(=O)N(C(C)CC)CC1=O (stereo not drawn) |
| 243 to 245 | CCOc1ccc(Nc2ncc(C(=O)O)c(=O)[nH]2)cc1OCC |
| 223 to 225 | Oc1c(Br)cc(-c2c3ccccc3c(C(F)(F)F)c3sc4ccccc4c23)cc1Br |
| 203 to 205 | CNC(=O)[C@@H](C[C@H](O)[C@H](CC1CCCCC1)NC(=O)[C@H](Cc1cscn1)NC(=O)OC(C)(C)C)C(C)(C)O |
| 151 to 152 | CC(C)C1NS(=O)(=O)N(COC(=O)c2c(Cl)cccc2Cl)C1=O (stereo not drawn) |
| 96 to 97 | CONS(=O)(=O)c1ccc(C(F)(F)F)cc1 |
| 94 to 96 | CC(=O)c1ccc(OCCCN2CCC(c3noc4cc(F)ccc34)CC2)c(N(C)C)c1 |
| 80 to 81 | N#CCCCc1ncccc1NS(=O)(=O)c1ccccc1 |

| melting point [°C] | SMILES |
| --- | --- |
| 140 to 142 | FC(F)(F)Oc1ccc(C=CC(C=Cc2ccc(OC(F)(F)F)cc2)=NNC2=NCCCN2)cc1 |
| 118 to 119 | CC(C)(C)OC(=O)NCC1=C(CC(=O)O)CCCC1 |
| 142 to 144 | Cc1ccc(C=CC(=O)N(C)O)cc1 |
| 75.8 to 77.2 | O=C(c1ccccc1)c1c(F)ccc([N+](=O)[O-])c1F |
| 251 to 257 | COCCn1c2cc(OCCCO)c(OC)cc2c2c3c(c(-c4ccccc4Cl)cc21)C(=O)NC3=O |
| 204 to 205 | COc1ccc(C(=O)Nc2ccc(C)c(NC(=O)c3cccc(N(C)C)c3)c2)cc1OC |
| 87 | COc1c(Cl)cc(NC(=O)OCCCl)c(OC)c1NC(=O)OCCCl |
| 147 to 157 | COC1(NC(=O)NS(=O)(=O)c2cccc(N=C=O)c2)C=C(C)N=CN1 (stereo not drawn) |
| 148 to 151 | COc1ccc(NC(=O)c2ccc(F)c(F)c2)cc1N |
| 163 to 165 | COc1cccc(OC)c1-c1ccccc1P(C1CCCCC1)C1CCCCC1 |
| 225 to 226 | Cc1cc(-c2nc3cccnn3c2-c2ccnc(NC(=O)c3ccc(C(F)(F)F)nc3)c2)ccc1F |
| 220 to 224 | COc1ccc2c(c1)C(=O)c1ccc(C3=NCCN3)cc1S2(=O)=O |
| 132 to 135 | CCN(CC)C(=O)c1ccc(C)c(-c2nc(S(C)(=O)=O)nc3c2CNC(=O)N3c2c(F)cccc2F)c1 |
| 140 to 150 | CC(C)(C)NC(=O)CN1C(=O)C(N)CC(c2ccc(Cl)c(Cl)c2)c2ccccc21 (stereo not drawn) |
| 114 to 115 | C=CCN(C(C)=O)c1cccc(-c2ccc3nnc(C)n3n2)c1 |
| 161 to 164 | COc1ccc(Cl)cc1C1OC(=O)N(C(C)=O)C1=O (stereo not drawn) |
| 76 to 79 | CC(C)(COS(N)(=O)=O)Oc1ccc(Cl)cc1 |
| 174 to 175 | NS(=O)(=O)c1ccc(NC(=O)CCl)c(Br)c1 |
| 53 | O=C(c1ccccc1)C(OCCN1CCCCC1)c1ccccc1 (stereo not drawn) |
| 153 to 156 | COC(=O)c1cn2ccsc2n1 |
| 114 to 116 | COc1ccc([C@@H]2CC=CC[C@H]2[N+](=O)[O-])cc1OC (racemic) |
| 48 | O=C(O)CCCCCCCCC1CO1 (stereo not drawn) |
| 103 to 105 | Oc1ccc(CCN(Cc2ccccc2)CC(O)COc2ccccc2)cc1 (stereo not drawn) |

| melting point [°C] | SMILES |
| --- | --- |
| > 260 | NC(=O)c1nc(-c2cccc(O)c2)nc2c1[nH]c(=O)n2-c1cccc2[nH]ccc12 |
| 260 to 272 | CNc1cc(N)c(C(=O)O)cc1[N+](=O)[O-] |
| 206 to 208 | NC(=O)c1nnn(Cc2ccccc2Cl)c1N |
| 160 to 169 | O=C(Nc1ccc(N2CCC(NC[C@H](O)COc3cccc4[nH]c(=O)[nH]c34)CC2)cc1)c1ccc2c(c1)OCO2 |
| 124 to 125 | CCOC(=O)Cc1nc(-c2ccc(Cl)cc2)oc1-c1ccoc1 |
| 75 to 76 | CC(C)(C)OC(=O)NCC(=O)c1ccc(OCc2ccccc2)cc1 |
| 78 | Cc1oc(Cl)nc1-c1ccc(Cl)cc1Cl |
| 171 to 173 | CCOC1COCC1Oc1cc(C(=O)Nc2c(Cl)cncc2Cl)ccc1OC (stereo not drawn) |
| 121 to 122 | COc1cc2nc(SCc3nccc(N(C)C)c3Cl)[nH]c2cc1OC |
| 196 | NC(=O)C(Nc1ccccc1C1CC1)c1c(Cl)cccc1Cl (stereo not drawn) |
| 70 to 72 | CCCCCCCNC(=O)N(C)c1cccc(-c2ccc(C=C(C)C(=O)O)cc2OCCCC)c1 |
| 128 to 129 | CCOC(=O)C1=C(C)NC(=O)N(C(=O)OC(C)C)C1c1cccc([N+](=O)[O-])c1 (stereo not drawn) |
| 118 | CC(C)(O)C#Cc1ccc(-c2ccc(F)cc2)cc1 |
| 238 to 240 | O=C1Nc2cc(Cl)cc(Cl)c2C1c1cc(Cl)ccc1O (stereo not drawn) |
| 120 to 122 | O=c1ccc2c(n1CCc1ccccc1)CCCC2NCCc1ccc(Cl)c(Cl)c1 (stereo not drawn) |
| 202 to 204 | O=C(O)Cc1c(C(=O)O)c2cc(Oc3ccc(Cl)cc3)ccc2n1-c1ccccc1 |
| 94 to 96 | CCSc1cc(C)nc(SCC)c1NC(=O)CCCCCCCSc1nc2ccccc2s1 |
| 65 to 67 | COC(=O)/C=C/c1cccc(OCCCCCOC(C)=O)c1 |
| 150 to 152 | Cn1cc(C(=O)c2ccc(Cl)cc2)cc1C(=O)c1ccc(Cl)nc1 |
| 256 | O=C(CSc1ccccc1)c1ccc2[nH]c3nc(Cl)ccc3c2c1 |
| 205 to 209 | CC(C)c1cc(NC(=O)C(CS)Cc2ccccc2)cc(C(=O)O)c1 (stereo not drawn) |
| 135 to 136 | CCc1nc2c(n1C(CC)CC)C(=O)N(C)C(C)N2c1ccc(Cl)cc1Cl (stereo not drawn) |
| 155 to 156 | Fc1ccc(-c2ncn(C3CCNCC3)c2-c2ccnc(Oc3cccc(F)c3)n2)cc1 |

| SMILES | melting point [°C] |
| --- | --- |
| O=C(NC(=S)NC1CCN(CCc2c[nH]c3ccccc23)CC1)c1ccccc1 | 212 to 215 |
| Cc1cc(C)cc(C(=O)N2CCC(N3CCC(C(=O)O)(c4ccccc4)CC3)CC2Cc2ccccc2)c1 (stereo not drawn) | 259 |
| CCCc1c(C(=O)C(C)C)c2ccc(C(N)=O)cc2n1Cc1ccc(Cl)cc1F | 200 to 202 |
| O=S1(=O)c2cccc3cccc(c23)N1CCCN1CC=C(c2c[nH]c3ccc(F)cc23)CC1 | 224 |
| CC(C)(CC(O)(C(=O)Nc1ccc([N+](=O)[O-])c(C(F)(F)F)c1)C(F)(F)F)c1ccccc1 (stereo not drawn) | 119 to 120 |
| O=C(C1CO1)C(Cl)(Cl)Cl (stereo not drawn) | 92 to 95 |

Reference: a melting point compilation (Tetko et al.; mined from patent text by program, amines drawn as free bases though some values may be those of a salt)
